The values that follow come from the supplement of paper PMC10307832.

Each structure is given as a SMILES string.

The subject of the first assay is NCI-H1734. Nature of the assay: relative viability (nuclei count vs DMSO), 5 days (fraction); higher = more cells survive. Conditions: first compound 0.8 µM. The method in brief: (§1)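 Dosing by pin tool came one day after lung cancer cell lines were seeded in 1536-well plates, using either one drug or a fixed anchor-drug dose plus five library-drug doses (not always all listed) in √10 steps. After 5 days, nuclei were counted on 4× images. Relative viability is treated-well nuclei count divided by vehicle-well nuclei count, and values are medians of duplicate plates.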
In turn, `CCCCCCCCCCCC1=C(O)C(=O)C=C(O)C1=O` [Embelin] + Nc1ncn([C@H]2C[C@H](O)[C@@H](CO)O2)c(=O)n1 [Decitabine] (partner 2 µM) came in with a relative viability of 0.56.

In turn, `CCCCCCCCCCCC1=C(O)C(=O)C=C(O)C1=O` [Embelin] + COc1cccc2cc(-c3nc([C@H]4CC[C@H](C(=O)O)CC4)n4ncnc(N)c34)[nH]c12 [OSI-027] (partner 0.5 µM) displayed a relative viability of 0.771.

With `CCCCCCCCCCCC1=C(O)C(=O)C=C(O)C1=O` [Embelin] + Nc1nc2[nH]cc(CCc3ccc(C(=O)N[C@@H](CCC(=O)O)C(=O)O)cc3)c2c(=O)[nH]1 [Pemetrexed] (partner 0.2 µM), the relative viability worked out at 0.447.

The same assay, now with this note: first compound 2.53 µM.
Take `CCCCCCCCCCCC1=C(O)C(=O)C=C(O)C1=O` [Embelin] + Cc1cc(Nc2cc(N3CCN(C)CC3)nc(Sc3ccc(NC(=O)C4CC4)cc3)n2)n[nH]1 [Tozasertib] (partner 0.1 µM): the relative viability was found to be 0.292.

`CCCCCCCCCCCC1=C(O)C(=O)C=C(O)C1=O` [Embelin] + CC(=O)Nc1cccc(-n2c(=O)n(C3CC3)c(=O)c3c(Nc4ccc(I)cc4F)n(C)c(=O)c(C)c32)c1 [Trametinib] (partner 0.02 µM) had a relative viability of 0.777.

In turn, `CCCCCCCCCCCC1=C(O)C(=O)C=C(O)C1=O` [Embelin] + Nc1ncn([C@H]2C[C@H](O)[C@@H](CO)O2)c(=O)n1 [Decitabine] (partner 2 µM) returned a relative viability of 0.56.

Turning to `CCCCCCCCCCCC1=C(O)C(=O)C=C(O)C1=O` [Embelin] + COc1cccc2cc(-c3nc([C@H]4CC[C@H](C(=O)O)CC4)n4ncnc(N)c34)[nH]c12 [OSI-027] (partner 0.5 µM), the relative viability turned out to be 0.618.

As for `CCCCCCCCCCCC1=C(O)C(=O)C=C(O)C1=O` [Embelin] + Nc1nc2[nH]cc(CCc3ccc(C(=O)N[C@@H](CCC(=O)O)C(=O)O)cc3)c2c(=O)[nH]1 [Pemetrexed] (partner 0.2 µM), the relative viability is 0.414.

The assay is the same for the next values; noted with them: first compound 8 µM.
For the compound `CCCCCCCCCCCC1=C(O)C(=O)C=C(O)C1=O` [Embelin] + Cc1cc(Nc2cc(N3CCN(C)CC3)nc(Sc3ccc(NC(=O)C4CC4)cc3)n2)n[nH]1 [Tozasertib] (partner 0.1 µM), the relative viability is 0.262.

The compound `CCCCCCCCCCCC1=C(O)C(=O)C=C(O)C1=O` [Embelin] + CC(=O)Nc1cccc(-n2c(=O)n(C3CC3)c(=O)c3c(Nc4ccc(I)cc4F)n(C)c(=O)c(C)c32)c1 [Trametinib] (partner 0.02 µM) gave a relative viability of 0.689.

With `CCCCCCCCCCCC1=C(O)C(=O)C=C(O)C1=O` [Embelin] + Nc1ncn([C@H]2C[C@H](O)[C@@H](CO)O2)c(=O)n1 [Decitabine] (partner 2 µM), the relative viability was found to be 0.516.

On to `CCCCCCCCCCCC1=C(O)C(=O)C=C(O)C1=O` [Embelin] + COc1cccc2cc(-c3nc([C@H]4CC[C@H](C(=O)O)CC4)n4ncnc(N)c34)[nH]c12 [OSI-027] (partner 0.5 µM), for which the relative viability was found to be 0.608.

In turn, `CCCCCCCCCCCC1=C(O)C(=O)C=C(O)C1=O` [Embelin] + Nc1nc2[nH]cc(CCc3ccc(C(=O)N[C@@H](CCC(=O)O)C(=O)O)cc3)c2c(=O)[nH]1 [Pemetrexed] (partner 0.2 µM) gave a relative viability of 0.401.

The test system of a further assay is COR-L23. The assay is described as above. Particulars: first compound 0.08 µM. The method in brief:
as §1
The compound `CCCCCCCCCCCC1=C(O)C(=O)C=C(O)C1=O` [Embelin] + Cc1cc(Nc2cc(N3CCN(C)CC3)nc(Sc3ccc(NC(=O)C4CC4)cc3)n2)n[nH]1 [Tozasertib] (partner 0.1 µM) came in with a relative viability of 0.191.

In turn, `CCCCCCCCCCCC1=C(O)C(=O)C=C(O)C1=O` [Embelin] + CC(=O)Nc1cccc(-n2c(=O)n(C3CC3)c(=O)c3c(Nc4ccc(I)cc4F)n(C)c(=O)c(C)c32)c1 [Trametinib] (partner 0.02 µM) had a relative viability of 0.562.

Turning to `CCCCCCCCCCCC1=C(O)C(=O)C=C(O)C1=O` [Embelin] + Nc1ncn([C@H]2C[C@H](O)[C@@H](CO)O2)c(=O)n1 [Decitabine] (partner 2 µM), the relative viability was 0.454.

`CCCCCCCCCCCC1=C(O)C(=O)C=C(O)C1=O` [Embelin] + COc1cccc2cc(-c3nc([C@H]4CC[C@H](C(=O)O)CC4)n4ncnc(N)c34)[nH]c12 [OSI-027] (partner 0.5 µM) had a relative viability of 0.756.

`CCCCCCCCCCCC1=C(O)C(=O)C=C(O)C1=O` [Embelin] + Nc1nc2[nH]cc(CCc3ccc(C(=O)N[C@@H](CCC(=O)O)C(=O)O)cc3)c2c(=O)[nH]1 [Pemetrexed] (partner 0.2 µM) yielded a relative viability of 0.196.

The assay is the same for the next values; noted with them: first compound 0.8 µM.
As for `CCCCCCCCCCCC1=C(O)C(=O)C=C(O)C1=O` [Embelin] + Cc1cc(Nc2cc(N3CCN(C)CC3)nc(Sc3ccc(NC(=O)C4CC4)cc3)n2)n[nH]1 [Tozasertib] (partner 0.1 µM), the relative viability turned out to be 0.253.

For `CCCCCCCCCCCC1=C(O)C(=O)C=C(O)C1=O` [Embelin] + CC(=O)Nc1cccc(-n2c(=O)n(C3CC3)c(=O)c3c(Nc4ccc(I)cc4F)n(C)c(=O)c(C)c32)c1 [Trametinib] (partner 0.02 µM), the relative viability amounted to 0.689.

`CCCCCCCCCCCC1=C(O)C(=O)C=C(O)C1=O` [Embelin] + Nc1ncn([C@H]2C[C@H](O)[C@@H](CO)O2)c(=O)n1 [Decitabine] (partner 2 µM): the relative viability worked out at 0.479.

Compound `CCCCCCCCCCCC1=C(O)C(=O)C=C(O)C1=O` [Embelin] + COc1cccc2cc(-c3nc([C@H]4CC[C@H](C(=O)O)CC4)n4ncnc(N)c34)[nH]c12 [OSI-027] (partner 0.5 µM) gave a relative viability of 0.92.

`CCCCCCCCCCCC1=C(O)C(=O)C=C(O)C1=O` [Embelin] + Nc1nc2[nH]cc(CCc3ccc(C(=O)N[C@@H](CCC(=O)O)C(=O)O)cc3)c2c(=O)[nH]1 [Pemetrexed] (partner 0.2 µM) gave a relative viability of 0.196.

The same assay, now with this note: first compound 2.53 µM.
Compound `CCCCCCCCCCCC1=C(O)C(=O)C=C(O)C1=O` [Embelin] + Cc1cc(Nc2cc(N3CCN(C)CC3)nc(Sc3ccc(NC(=O)C4CC4)cc3)n2)n[nH]1 [Tozasertib] (partner 0.1 µM) displayed a relative viability of 0.233.

For the compound `CCCCCCCCCCCC1=C(O)C(=O)C=C(O)C1=O` [Embelin] + CC(=O)Nc1cccc(-n2c(=O)n(C3CC3)c(=O)c3c(Nc4ccc(I)cc4F)n(C)c(=O)c(C)c32)c1 [Trametinib] (partner 0.02 µM), the relative viability was 0.653.

`CCCCCCCCCCCC1=C(O)C(=O)C=C(O)C1=O` [Embelin] + Nc1ncn([C@H]2C[C@H](O)[C@@H](CO)O2)c(=O)n1 [Decitabine] (partner 2 µM) had a relative viability of 0.433.

Turning to `CCCCCCCCCCCC1=C(O)C(=O)C=C(O)C1=O` [Embelin] + COc1cccc2cc(-c3nc([C@H]4CC[C@H](C(=O)O)CC4)n4ncnc(N)c34)[nH]c12 [OSI-027] (partner 0.5 µM), the relative viability turned out to be 0.923.

On to `CCCCCCCCCCCC1=C(O)C(=O)C=C(O)C1=O` [Embelin] + Nc1nc2[nH]cc(CCc3ccc(C(=O)N[C@@H](CCC(=O)O)C(=O)O)cc3)c2c(=O)[nH]1 [Pemetrexed] (partner 0.2 µM), for which the relative viability was 0.201.

The assay is the same for the next values; noted with them: first compound 8 µM.
As for `CCCCCCCCCCCC1=C(O)C(=O)C=C(O)C1=O` [Embelin] + Cc1cc(Nc2cc(N3CCN(C)CC3)nc(Sc3ccc(NC(=O)C4CC4)cc3)n2)n[nH]1 [Tozasertib] (partner 0.1 µM), the relative viability was determined as 0.19.
